Measurements as given in ChEMBL document CHEMBL1201862, “PubChem BioAssay data set” (2004).
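Assay format: 96-well plates, 48-hour exposure. The concentration for 50% growth inhibition is given as GI50.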 Active and inactive are the calls of the source. Cut-off read from the data, not from the text of the source: active = GI50 up to about 1.1 µM and inactive = higher.

Legend:
Assay in all cases: growth of human tumour cells (NCI), 48 h
DLD-1 = test system: DLD-1
HCT-15 = test system: HCT-15
786-0 = test system: 786-0
SR = test system: SR
A498 = test system: A498
MOLT-4 = test system: MOLT-4
CCRF-CEM = test system: CCRF-CEM
UO-31 = test system: UO-31
NCI-H226 = test system: NCI-H226
KM-20L2 = test system: KM-20L2
RXF 393 = test system: RXF 393
SF-295 = test system: SF-295
A549 = test system: A549
U-251 = test system: U-251
LXFL 529 = test system: LXFL 529
IGROV-1 = test system: IGROV-1
RPMI-8226 = test system: RPMI-8226
NCI-H522 = test system: NCI-H522
XF498 = test system: XF498
OVCAR-3 = test system: OVCAR-3
SK-MEL-2 = test system: SK-MEL-2
OVCAR-4 = test system: OVCAR-4
SF-539 = test system: SF-539
SN12C = test system: SN12C
Malme-3M = test system: Malme-3M
SNB-75 = test system: SNB-75
KM12 = test system: KM12
HOP-18 = test system: HOP-18
NCI-H460 = test system: NCI-H460
M14 = test system: M14
SW-620 = test system: SW-620
HT-29 = test system: HT-29
SK-MEL-28 = test system: SK-MEL-28
SNB-19 = test system: SNB-19
SF-268 = test system: SF-268
HCT-116 = test system: HCT-116
HL-60 = test system: HL-60
COLO 205 = test system: COLO 205
HOP-92 = test system: HOP-92
DMS-114 = test system: DMS-114
CAKI-1 = test system: CAKI-1
M19-MEL = test system: M19-MEL
HCC 2998 = test system: HCC 2998
OVCAR-8 = test system: OVCAR-8
DMS-273 = test system: DMS-273
SK-MEL-5 = test system: SK-MEL-5
K562 = test system: K562
TK-10 = test system: TK-10
SK-OV-3 = test system: SK-OV-3
EKVX = test system: EKVX
ACHN = test system: ACHN
NCI-H23 = test system: NCI-H23
OVCAR-5 = test system: OVCAR-5
UACC-62 = test system: UACC-62
LOX IMVI = test system: LOX IMVI
HOP-62 = test system: HOP-62
DU-145 = test system: DU-145
MDA-MB-231 = test system: MDA-MB-231
MCF7 = test system: MCF7
SNB-78 = test system: SNB-78
BT-549 = test system: BT-549
NCI/ADR-RES = test system: NCI/ADR-RES
MDA-N = test system: MDA-N
PC-3 = test system: PC-3
T47D = test system: T47D
Hs-578T = test system: Hs-578T
MDA-MB-435 = test system: MDA-MB-435
UACC-257 = test system: UACC-257

Compound: CN(C)/N=N/c1ccccc1
- GI50 (DLD-1): > 100 µM (inactive)
- GI50 (HCT-15): 16.7 µM
- GI50 (786-0): > 100 µM (inactive)
- GI50 (SR): > 100 µM (inactive)
- GI50 (A498): > 100 µM (inactive)
- GI50 (MOLT-4): > 100 µM (inactive)
- GI50 (CCRF-CEM): 22 µM (inactive)
- GI50 (UO-31): 26.8 µM (inactive)
- GI50 (NCI-H226): > 100 µM (inactive)
- GI50 (KM-20L2): 42.3 µM (inactive)
- GI50 (RXF 393): > 100 µM (inactive)
- GI50 (SF-295): 1.35 µM (inactive)
- GI50 (A549): 68.5 µM (inactive)
- GI50 (U-251): > 100 µM (inactive)
- GI50 (LXFL 529): > 100 µM (inactive)
- GI50 (IGROV-1): 34.3 µM (inactive)
- GI50 (RPMI-8226): > 100 µM (inactive)
- GI50 (NCI-H522): 21.7 µM (inactive)
- GI50 (XF498): > 100 µM (inactive)
- GI50 (OVCAR-3): > 100 µM (inactive)
- GI50 (SK-MEL-2): > 100 µM (inactive)
- GI50 (OVCAR-4): > 100 µM (inactive)
- GI50 (SF-539): > 100 µM (inactive)
- GI50 (SN12C): > 100 µM (inactive)
- GI50 (Malme-3M): > 100 µM (inactive)
- GI50 (SNB-75): > 100 µM (inactive)
- GI50 (KM12): 12.7 µM (inactive)
- GI50 (HOP-18): > 100 µM (inactive)
- GI50 (NCI-H460): 98.9 µM (inactive)
- GI50 (M14): > 100 µM (inactive)
- GI50 (SW-620): > 100 µM (inactive)
- GI50 (HT-29): > 100 µM (inactive)
- GI50 (SK-MEL-28): > 100 µM (inactive)
- GI50 (SNB-19): > 100 µM (inactive)
- GI50 (SF-268): > 100 µM (inactive)
- GI50 (HCT-116): > 100 µM (inactive)
- GI50 (HL-60): > 100 µM (inactive)
- GI50 (COLO 205): > 100 µM (inactive)
- GI50 (HOP-92): > 100 µM (inactive)
- GI50 (DMS-114): 31.6 µM (inactive)
- GI50 (CAKI-1): > 100 µM (inactive)
- GI50 (M19-MEL): 43.4 µM (inactive)
- GI50 (HCC 2998): 38.1 µM (inactive)
- GI50 (OVCAR-8): > 100 µM (inactive)
- GI50 (DMS-273): > 100 µM (inactive)
- GI50 (SK-MEL-5): > 100 µM (inactive)
- GI50 (K562): > 100 µM (inactive)
- GI50 (TK-10): > 100 µM (inactive)
- GI50 (SK-OV-3): > 100 µM (inactive)
- GI50 (EKVX): > 100 µM (inactive)
- GI50 (ACHN): 25.9 µM (inactive)
- GI50 (NCI-H23): > 100 µM (inactive)

Compound: OC1CCOc2ccccc21 (centres undefined)
- GI50 (DLD-1): > 100 µM (inactive)
- GI50 (HCT-15): > 100 µM
- GI50 (SR): > 100 µM (inactive)
- GI50 (MOLT-4): > 100 µM (inactive)
- GI50 (CCRF-CEM): > 100 µM (inactive)
- GI50 (UO-31): > 100 µM (inactive)
- GI50 (NCI-H226): > 100 µM (inactive)
- GI50 (KM-20L2): > 100 µM (inactive)
- GI50 (RXF 393): > 100 µM (inactive)
- GI50 (OVCAR-5): > 100 µM (inactive)
- GI50 (A549): > 100 µM (inactive)
- GI50 (UACC-62): > 100 µM (inactive)
- GI50 (U-251): > 100 µM (inactive)
- GI50 (LXFL 529): > 100 µM (inactive)
- GI50 (IGROV-1): > 100 µM (inactive)
- GI50 (RPMI-8226): > 100 µM (inactive)
- GI50 (NCI-H522): > 100 µM (inactive)
- GI50 (XF498): > 100 µM (inactive)
- GI50 (OVCAR-3): > 100 µM (inactive)
- GI50 (SK-MEL-2): > 100 µM (inactive)
- GI50 (OVCAR-4): > 100 µM (inactive)
- GI50 (SF-539): > 100 µM (inactive)
- GI50 (SN12C): > 100 µM (inactive)
- GI50 (Malme-3M): > 100 µM (inactive)
- GI50 (KM12): > 100 µM (inactive)
- GI50 (HOP-18): 56.2 µM (inactive)
- GI50 (NCI-H460): > 100 µM (inactive)
- GI50 (M14): > 100 µM (inactive)
- GI50 (SW-620): > 100 µM (inactive)
- GI50 (HT-29): > 100 µM (inactive)
- GI50 (SK-MEL-28): > 100 µM (inactive)
- GI50 (SNB-19): > 100 µM (inactive)
- GI50 (SF-268): > 100 µM (inactive)
- GI50 (HCT-116): > 100 µM (inactive)
- GI50 (HL-60): > 100 µM (inactive)
- GI50 (COLO 205): > 100 µM (inactive)
- GI50 (DMS-114): > 100 µM (inactive)
- GI50 (CAKI-1): > 100 µM (inactive)
- GI50 (M19-MEL): > 100 µM (inactive)
- GI50 (HCC 2998): > 100 µM (inactive)
- GI50 (LOX IMVI): > 100 µM (inactive)
- GI50 (OVCAR-8): > 100 µM (inactive)
- GI50 (DMS-273): > 100 µM (inactive)
- GI50 (SK-MEL-5): > 100 µM (inactive)
- GI50 (K562): > 100 µM (inactive)
- GI50 (TK-10): > 100 µM (inactive)
- GI50 (SK-OV-3): > 100 µM (inactive)
- GI50 (HOP-62): > 100 µM (inactive)
- GI50 (EKVX): > 100 µM (inactive)
- GI50 (ACHN): > 100 µM (inactive)
- GI50 (NCI-H23): > 100 µM (inactive)

Compound: Cc1ccc([S+](c2ccccc2)c2cc(C)ccc2C)cc1.O=C(OC(C(=O)[O-])C(OC(=O)c1ccccc1)C(=O)O)c1ccccc1 (centres undefined)
- GI50 (DLD-1): 14.6 µM (inactive)
- GI50 (HCT-15): > 100 µM
- GI50 (DU-145): 34.2 µM (inactive)
- GI50 (786-0): 26.2 µM (inactive)
- GI50 (SR): 1.85 µM (inactive)
- GI50 (A498): 39.2 µM (inactive)
- GI50 (MOLT-4): 26.5 µM (inactive)
- GI50 (CCRF-CEM): 12.8 µM (inactive)
- GI50 (UO-31): 38 µM (inactive)
- GI50 (NCI-H226): 15.4 µM (inactive)
- GI50 (KM-20L2): 7.73 µM (inactive)
- GI50 (MDA-MB-231): 16.9 µM (inactive)
- GI50 (RXF 393): 34 µM (inactive)
- GI50 (SF-295): 11.9 µM (inactive)
- GI50 (OVCAR-5): 23.2 µM (inactive)
- GI50 (A549): 8.87 µM (inactive)
- GI50 (UACC-62): 12.2 µM (inactive)
- GI50 (U-251): 5.37 µM (inactive)
- GI50 (IGROV-1): 10.7 µM (inactive)
- GI50 (RPMI-8226): 2 µM (inactive)
- GI50 (MCF7): 4.88 µM (inactive)
- GI50 (NCI-H522): 3.55 µM (inactive)
- GI50 (SNB-78): 17.7 µM (inactive)
- GI50 (XF498): 3.75 µM (inactive)
- GI50 (OVCAR-3): 3.14 µM (inactive)
- GI50 (BT-549): 3.37 µM (inactive)
- GI50 (SK-MEL-2): 3.51 µM (inactive)
- GI50 (OVCAR-4): 46 µM (inactive)
- GI50 (SF-539): 29 µM (inactive)
- GI50 (SN12C): 17.7 µM (inactive)
- GI50 (Malme-3M): 44.9 µM (inactive)
- GI50 (SNB-75): 8.09 µM (inactive)
- GI50 (KM12): 3.91 µM (inactive)
- GI50 (HOP-18): 12.3 µM (inactive)
- GI50 (NCI-H460): 10.7 µM (inactive)
- GI50 (M14): 18.9 µM (inactive)
- GI50 (SW-620): 7.89 µM (inactive)
- GI50 (NCI/ADR-RES): > 100 µM (inactive)
- GI50 (HT-29): 7.69 µM (inactive)
- GI50 (SK-MEL-28): 17.6 µM (inactive)
- GI50 (SNB-19): 4.83 µM (inactive)
- GI50 (MDA-N): 3.89 µM (inactive)
- GI50 (SF-268): 22.1 µM (inactive)
- GI50 (HCT-116): 3.49 µM (inactive)
- GI50 (HL-60): 3.13 µM (inactive)
- GI50 (COLO 205): 4.26 µM (inactive)
- GI50 (HOP-92): 13.5 µM (inactive)
- GI50 (PC-3): 2.83 µM (inactive)
- GI50 (CAKI-1): 14.6 µM (inactive)
- GI50 (M19-MEL): 5.41 µM (inactive)
- GI50 (T47D): 6.98 µM (inactive)
- GI50 (HCC 2998): 7.46 µM (inactive)
- GI50 (Hs-578T): 5.12 µM (inactive)
- GI50 (MDA-MB-435): 5.3 µM (inactive)
- GI50 (LOX IMVI): 6.85 µM (inactive)
- GI50 (OVCAR-8): 6.7 µM (inactive)
- GI50 (DMS-273): 1.89 µM (inactive)
- GI50 (SK-MEL-5): 3.85 µM (inactive)
- GI50 (K562): 2.53 µM (inactive)
- GI50 (TK-10): 18.2 µM (inactive)
- GI50 (SK-OV-3): 16.9 µM (inactive)
- GI50 (HOP-62): 21.5 µM (inactive)
- GI50 (EKVX): > 100 µM (inactive)
- GI50 (ACHN): 22.9 µM (inactive)
- GI50 (NCI-H23): 3.82 µM (inactive)
- GI50 (UACC-257): 1.96 µM (inactive)
